SMILES strings stand for the structures.

By IC50 is commonly meant the concentration needed to halve the response being measured. Low values mean inhibition by little substance, high ones a need for much substance. For orientation: ED50 means the midpoint of the dose-response relation.

The target of test [1] is T1, 5-LO (Homo sapiens, UniProt P09917).
T1 construct: incubating a test compound with heparinised human blood, prior to challenge with the calcium ionphore A23187; endogenous in cells; host or cells: blood cells in heparinised human blood
T1 sequence (P09917 1-674): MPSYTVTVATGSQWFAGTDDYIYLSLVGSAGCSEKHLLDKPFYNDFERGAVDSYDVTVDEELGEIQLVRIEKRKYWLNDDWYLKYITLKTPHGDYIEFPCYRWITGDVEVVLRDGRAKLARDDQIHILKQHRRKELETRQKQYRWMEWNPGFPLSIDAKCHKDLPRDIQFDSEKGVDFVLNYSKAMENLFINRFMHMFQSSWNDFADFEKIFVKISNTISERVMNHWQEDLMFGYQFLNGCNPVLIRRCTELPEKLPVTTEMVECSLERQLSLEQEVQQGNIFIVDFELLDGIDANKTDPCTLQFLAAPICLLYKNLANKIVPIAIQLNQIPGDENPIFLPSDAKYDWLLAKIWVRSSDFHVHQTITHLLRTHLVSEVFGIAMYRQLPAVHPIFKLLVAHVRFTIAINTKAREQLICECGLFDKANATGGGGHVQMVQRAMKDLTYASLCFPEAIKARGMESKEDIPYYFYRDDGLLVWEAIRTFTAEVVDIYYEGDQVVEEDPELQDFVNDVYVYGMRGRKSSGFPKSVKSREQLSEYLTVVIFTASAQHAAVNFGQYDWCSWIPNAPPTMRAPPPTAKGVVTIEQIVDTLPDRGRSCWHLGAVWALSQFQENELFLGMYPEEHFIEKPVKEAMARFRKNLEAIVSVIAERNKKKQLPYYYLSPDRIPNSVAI
Description: Test a) in vitro human blood assay, A23187 challenge, LTB4 radioimmunoassay. The format is cell-based. As to conditions: heparinised human blood. As for the experimental part: (§1) As stated previously, the novel compounds of the formula I are inhibitors of the enzyme 5-LO.
a) An in vitro assay system involving incubating a test compound with heparinised human blood, prior to challenge with the calcium ionphore A23187 and then indirectly measuring the inhibitory effects on 5-LO by assaying the amount of LTB4 using specific radioimmunoassays described by Carey and Forder (Prostaglandins, Leukotrienes Med., 1986, 22, 57; Prostaglandins, 1984, 28, 666; Brit. J. Pharmacol., 1985, 84, 34P) which involve the use of a protein-LTB4 conjugate produced using the procedure of Young et alia (Prostaglandins, 1983, 26(4), 605-613). The effects of a test compound on the enzyme cyclooxygenase (which is involved in the alternative metabolic pathway for arachidonic acid and gives rise to prostaglandins, thromboxanes and related metabolites) may be measured at the same time using the specific radioimmunoassay for thromboxane B2 (TxB2) described by Carey and Forder (see above). This test provides an indication of the effects of a test compound against 5-LO and also cyclooxygenase in the presence of blood cells and proteins. It permits the selectivity of the inhibitory effect on 5-LO or cyclooxygenase to be assessed.

The target of test [2] is T2, 5-LO (Rattus norvegicus, UniProt P12527).
T2 construct: liberation of LTB4 induced by zymosan within an air pouch generated within the subcutaneous tissue of the back of male rats; from tissue
T2 sequence (P12527 1-673): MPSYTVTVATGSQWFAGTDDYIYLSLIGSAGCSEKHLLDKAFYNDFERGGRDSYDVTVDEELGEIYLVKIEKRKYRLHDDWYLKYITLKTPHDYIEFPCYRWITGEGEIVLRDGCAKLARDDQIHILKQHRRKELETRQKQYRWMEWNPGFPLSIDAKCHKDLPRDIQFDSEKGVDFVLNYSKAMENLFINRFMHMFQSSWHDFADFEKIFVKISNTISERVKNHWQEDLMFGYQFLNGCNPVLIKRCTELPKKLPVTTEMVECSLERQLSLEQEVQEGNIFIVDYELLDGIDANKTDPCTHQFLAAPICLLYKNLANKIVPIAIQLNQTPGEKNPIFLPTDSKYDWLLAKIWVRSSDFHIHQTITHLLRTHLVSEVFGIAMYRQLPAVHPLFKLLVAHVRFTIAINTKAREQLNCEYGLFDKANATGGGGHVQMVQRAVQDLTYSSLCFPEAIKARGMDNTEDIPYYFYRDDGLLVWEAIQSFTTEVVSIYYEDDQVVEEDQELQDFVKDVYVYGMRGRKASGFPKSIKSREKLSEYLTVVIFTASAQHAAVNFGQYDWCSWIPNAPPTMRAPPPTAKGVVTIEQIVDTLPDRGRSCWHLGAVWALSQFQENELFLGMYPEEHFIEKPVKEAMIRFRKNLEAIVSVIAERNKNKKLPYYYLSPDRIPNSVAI
The experiment in a line: Test c) in vivo zymosan-induced LTB4 liberation in rat air pouch. Conditions: male rats, oral. As for the experimental part: as §1
c) An in vivo system involving measuring the effects of a test compound administered orally against the liberation of LTB4 induced by zymosan within an air pouch generated within the subcutaneous tissue of the back of male rats. The rats are anaesthetised and air pouches are formed by the injection of sterile air (20 ml). A further injection of air (10 ml) is similarly given after 3 days. At 6 days after the initial air injection the test compound is administered (usually orally as the suspension produced when a solution of the test compound in dimethylsulphoxide is added to hydroxypropylmethylcellulose), followed by the intrapouch injection of zymosan (1 ml of a 1% suspension in physiological saline). After 3 hours the rats are killed, the air pouches are lavaged with physiological saline, and the specific radioimmunoassay described above is used to assay LTB4 in the washings. This test provides an indication of inhibitory effects against 5-LO in an inflammatory milieu.

In test [1], `COC1(c2cccc(Sc3ccc(S(=O)(=O)Nc4ccc(Cl)cn4)cc3)c2)CCOCC1` [Example 4, N-(5-chloropyrid-2-yl)-4[3-(4-methoxytetrahydropyran-4-yl)phenylthio]benzenesulphonamide] came in with an IC50 of 4.2 µM. Moreover, the ED50 in test [2] turned out to be 1.5 mg/kg.
For `COC1(c2cccc(Sc3ccc(S(=O)(=O)Nc4nccs4)cc3)c2)CCOCC1` [Example 6, 4-[3-(4-methoxytetrahydropyran-4-yl)phenylthio]-N-(2-thiazolyl)benzenesulphonamide], in that order: 1 µM and 1.5 mg/kg.
